According to patent US20260069694A1, “IDENTIFICATION OF HIGHLY IMMUNOSUPRESIVE TREG POPULATION IN TUMOR MICROENVIRONMENTS” (THE TRUSTEES OF COLUMBIA UNIVERSITY IN THE CITY OF NEW YORK, priority 2023, published 2026):
Entries after “also recorded” stand apart in the source; their conditions may differ.

Tests used:
[1] = tested on: Tregs that were expanded in the presence of PDAC cells; assay: FAM-iRGD binding to Tregs expanded with PDAC cells (flow cytometry); parameters: species or system mouse; conditions: flow cytometry MFI
Protocol: The isolated immune cells were subjected to flow cytometry for quality check and to analyze the cell populations of interest. […] The binding was analyzed by flow cytometry.
CD4+ T cells were magnetically isolated from the spleens of healthy C57B6129SF1/J mice using a mouse CD4+ T cell isolation kit (Miltenyi Biotec™). The CD4+ T cells were cultured for 3 days with or without KPC-derived PDAC cells in the presence of low dose anti-CD3/CD28 beads (×40 dilution; Miltenyi Biotec™), TGF-β1 (5 ng/ml; Bio-Techne Corporation™), and recombinant mouse interleukin-2 (mIL-2, 100 U/ml; Roche™), and subjected to flow cytometry as described elsewhere. In some cases, 1.0 mM iRGD was added to the culture in binding buffer supplemented with mIL-2 to study the effect on apoptosis. The cells were then stained with FITC-conjugated annexin V (BioLegend™) and 7-AAD (BioLegend™) for 15 minutes at room temperature to detect apoptotic cells by flow cytometry.
For the data presented in FIG. 16 through FIG. 19, CD4+ T cells isolated from the spleen of healthy C57B6129SF1/J hybrid mice were expanded for 3 days in vitro in the presence of KPC-derived PDAC cells. Flow cytometry was performed for subsequent analyses. […] The bar diagram summarizes the median fluorescence intensity (MFI) from 4 independent experiments. […] Apoptosis was quantitated by measuring annexin V and 7-AAD double positive cells by flow cytometry (n=3).

[2] = tested on: naïve CD4+ T cells / CD4+CD25+Foxp3+ iTregs; assay: iTreg induction from naive CD4+ T cells in the absence or presence of iRGD or iRGE; type: cell-based, mouse
Protocol: Naïve CD4^+ T cells and nTregs were isolated from the spleen of healthy C57B6129SF1/J mice by magnetic separation using a mouse CD4+ T cell isolation kit and PE-conjugated anti-mouse CD25 with anti-PE magnetic separation micro beads (Miltenyi Biotec™). The isolated T cells were stimulated with anti-CD3/CD28 beads (×25 dilution; Miltenyi Biotec™) in the presence or absence of recombinant mouse TGF-β1 (5 ng/ml; Bio-Techne™ Corporation) for 3 days. iRGD (100 μM) or iRGE (100 μM) peptide was added to the cultures in some experiments. To study the effect of TGF-β1 on the induction of αvβ5 integrin+ iTregs, naïve CD4+ T cells were cultured with anti-CD3/CD28 beads (x 25 dilution) and TGF-β1 (5 ng/ml) in the presence or absence of varying concentrations of a TGF-βR1 inhibitor (LY2157299; Selleck™ Chemicals LLC). To study the effect of TCR stimulation on the induction of αvβ5 integrin+ iTregs, naïve CD4+ T cells treated with varying concentrations of plate-coated anti-mouse CD3 Ab (eBioscience™) in the presence of soluble anti-mouse CD28 Ab (2 μg/ml) (eBioscience™) and TGF-β1 (5 ng/ml). The cells were subjected to flow cytometry as described elsewhere.
For the data presented in FIG. 31, FIG. 32A, and FIG. 32B, naïve CD4+ T cells were stimulated with anti-CD3/CD28 Abs and TGF-β1 in the absence or presence of iRGD or iRGE. Flow cytometry was performed to quantify the proportion of CD4+CD25+Foxp3+ iTregs (see FIG. 31) and αvβ5 integrin+ cells among the iTregs (See FIG. 32A). Apoptosis of αvβ5 integrin+ iTregs was quantitated by measuring cleaved caspase 3 using flow cytometry (see FIG. 32B; n=3).
To investigate whether iRGD Reduces CD4+CD25+Foxp3+ iTregs in an RGD-Dependent Manner in Vitro, naïve CD4+ T cells were stimulated with anti-CD3/CD28 Abs and TGF-β1 in the absence or presence of the iRGD or iRGE peptide. The resulting cells were subjected to flow cytometry to analyze the expression of CD25 and Foxp3 in the CD4+ T cells (FIG. 33A) and the expression of the αvβ5 integrin and NRP-1 on CD4+CD25+Foxp3+ iTregs (FIG. 33B). The bar diagram in (FIG. 33C) summarizes the proportion of NRP-1+ cells among the iTregs. The statistical analysis used was the one-way ANOVA; p=0.8221. n=3 per group.
The proportion of apoptotic αvβ5 integrin+ iTregs (FIG. 34) and CD4+Foxp3neg T cells (FIG. 35) was quantitated by measuring cleaved caspase 3 using flow cytometry. The statistical analysis used was Welch's t test; p=0.0705 (n=3). The dot plots and histograms of FIG. 33C and FIG. 35 show representative data from the 3 independent experiments. The error bars indicate the mean±standard error; N.S., not significant.

huPDAC tumors = assay: Humanized PDAC (huPDAC) mice treated with iRGD monotherapy; type: in vivo, mouse
Description: In summary, this report conveys an important concept of tumor-specific Treg targeting, which can be achieved using an affinity probe that targets the αvβ5 integrin expressed on tumor-resident Tregs. […] The immune system of huPDAC mice is replaced by functional human immune cells, which react to antigens in a human-leukocyte antigen (HLA)-restricted manner, allowing us to study the response of human immunity against human PDAC in mice. […] Our finding that patient-derived PDAC tissue also harbors αvβ5 integrin- and NRP-1-positive Tregs further supports the argument that iRGD-mediated Treg targeting can be achieved in human PDAC patients. Clinical trials are now being organized to explore the therapeutic benefit of adding an ICB to iRGD-based chemotherapy in PDAC patients.

[3] = peptide 100 μM, anti-CD3/CD28 Abs and TGF-β1

## CRGDKGPDC [iRGD]
[1]
  binding to αvβ5 integrin+ Tregs induced in the presence of PDAC cells: Binds
[2]; flow cytometry
  apoptosis of CD4+Foxp3neg T cells (cleaved caspase 3): Neither iRGD nor iRGE increased the apoptosis
  apoptosis of αvβ5 integrin+ Tregs (cleaved caspase 3): induces apoptosis of αvβ5 integrin^+ Tregs in an RGD-dependent manner; also recorded: increased apoptosis
[2]; peptide 100 μM
  proportion of NRP-1-positive iTregs: did not alter the proportion
[2]; [3]
  proportion of CD4+CD25+Foxp3+ iTregs: reduction
  αvβ5 integrin-positive population among the iTregs: reduction
huPDAC tumors
  CD8/Treg ratio in the huPDAC tumors: increased the CD8/Treg ratio in the tumors
